Assay results reported in patent US9376369B2, “Anti-cholesterolemic compounds and methods of use” (priority 2006, dated 2016).

How the values were obtained:
[1] = tested on: human aortic smooth muscle cells; experiment: Measurement of the level (mass) of cholesterol in cells; type: cell-based; conditions: active fractions 5 μg/ml
Description: FIG. 9 is a graph showing the effect of active fractions from EO on cholesterol level in human ASMC. Cells were incubated with active fractions (5 μg/ml) and cholesterol mass was determined.
Following treatment cells were extracted with hexane-isopropanol 3:2 by volume as described above. The pooled extracts were dried in a stream of nitrogen and subjected to measurement of total cholesterol mass using a cholesterol kit (WAKO chemicals, VA) with cholesterol as the standard. The data was expressed as μg cholesterol per mg protein.

[2] = tested on: human aortic smooth muscle cells; experiment: Cholesterol biosynthesis ([14C]acetate incorporation) in cultured cells with ox-LDL; type: cell-based; conditions: for hypocholesterolemic activity: purified compounds isolated from EO, cell-based bioassay
Description: Cells were incubated with aqueous extracts of O. sanctum (JH-1), EO (JH-2), W. somnifera (JH-3) and EuMil (JH-4) at concentration 500 μg/ml in medium supplemented with 100 μg/ml oxidized LDL. Cells incubated with 100 μg/ml ox-LDL served as a control. [14C] acetate (2 μCi/ml) was added and incorporation of radioactivity into cholesterol and cholesteryl esters was measured after 24 h of incubation in standard cell culture conditions. Lovastatin (10 μM) plus ox-LDL served as a positive control.
H-ASMC (×10^5) were seeded in plastic 6-well trays and grown in smooth muscle cells medium-2 (Cambrex). Incubation was pursued in a water-jacketed incubator with 5% CO2 and 95% air. After the cells reached confluence medium was replaced by plain serum-free medium. Following incubation for 24 h fresh medium, 100 μg/ml ox-LDL and various herbal fractions solubilized in 12.5% DMSO were added. Cells that were incubated with lovastatin (10 μM) served as a positive control in all experiments.
Cells were incubated with and without ox-LDL and EuMil/ingredients and [14C] acetate ([…], 24 h). Next, medium was removed; the monolayers were washed three times with PBS. Cells were extracted with hexane:isopropanol (3:2 by volume, 2×3 ml) at room temperature. The extracts were pooled in glass tubes and total lipid extract dried in nitrogen atmosphere. 1N NaOH (1 ml) was added to each tube to solubilize proteins and the incubated overnight in open air. Next, water (2 ml) was added to the air dried tubes, the contents were mixed and utilized for protein measurement using BCA protein assay kit (Pierce, Rockford, Ill.)
The total lipid extracts were dried in stream of nitrogen, re-suspended in chloroform-methanol (2:1 by volume) and applied on a HPTLC silica gel plate. Standard solutions of cholesterol, monolein, diolein, triolein, fatty acid and cholesteryl oleate (50 μg each) also were applied to the plate. The plates were developed in heptane-ether-acetic acid (85:15:1 by volume). Following development, the plates were dried in air and exposed to an X-ray film for 2-3 days at […]. After the films were developed, the HPTLC plates were immersed in iodine vapors to identify the migration of individual neutral lipid molecular species. Gel areas, corresponding to cholesterol were scraped and radioactivity was measured using Beckman liquid scintillation spectrometer. The data was expressed as counts per mg protein. The incorporation of radioactivity in cells incubated with oxidized LDL was considered as 100% (control). All experimental values in cells treated with EuMil/ingredients plus oxidized LDL were expressed as a percentage of the control. All assays were conducted in triplicate.

[3] = Behaviour of mucic acid gallates in aqueous solution; type: physicochemical; conditions: as previously reported [22]
Description: It should be noted that the mucic acid gallates derivatives 7 and 9 equilibrate in aqueous solutions as previously reported, while 1-methyl mucate-2-gallate (8) is not an artifact of the isolation procedure as it could be isolated when only ethanol, water and acetonitrile were used.

[4] = tested on: human aortic smooth muscle cells; experiment: Cholesterol efflux ([3H]cholesterol); type: cell-based; conditions: 24 h with fractions after [3H]cholesterol labelling
F344 rats = conditions: both sexes, 5% GA in diet, week 1 to end of 13 weeks; cited from earlier work
[5] = tested on: human aortic smooth muscle cells; experiment: Cholesterol uptake ([3H]cholesterol); type: cell-based; conditions: [3H]cholesterol 5 μCi/ml, serum-free medium, 24 h
Description: FIG. 11 is a graph showing the effect of active compounds from EO on uptake of cholesterol in human aortic smooth muscle cells. Confluent culture of cells grown in 96 well plates was incubated in serum-free medium with [3H]cholesterol (5 μCi/ml) with and without active fractions. After 24 h the uptake of cholesterol was measured by scintillation spectrometry.
Confluent culture of human aortic smooth muscle cells were pre-incubated in serum-free DMEM for 24 h. Next, fresh medium and [3H]cholesterol (5 μCi/ml) plus various herbal compounds were added. Following incubation for 24 h and 48 h, [3H]cholesterol taken up by cell was measured by solubilization in 1 M NaOH and radioactivity measured.

H-ASMC = experiment: Cell proliferation ([3H]thymidine incorporation); type: cell-based, human
Description: Following incubation for 18 h with and without ox-LDL and EuMil/ingredients and lovastatin [3H]thymidine ([…]) was added in 96 well dishes and incubation continued for 6 h at 37° C. Next, the cells were washed and the incorporation of [3H]thymidine into DNA was measured employing scintillation spectrometry. The data was calculated as dpm/well. All experimental values were expressed as a percentage of the control values (cells incubated with ox-LDL alone).

[6] = 10 μM plus 100 μg/ml ox-LDL, 24 h, ox-LDL alone = control

Row | Compound | cellular mass / level of cholesterol in ASMC [1] | hypocholesterolemic activity [2] | other results
1 | COC(=O)C(OC(=O)c1cc(O)c(O)c(O)c1)C(O)C(O)C(O)C(=O)O (centres unmarked) [Compound 8, 1-methyl mucate-2-gallate] | effective in decreasing cholesterol level | hypocholesterolemic active compounds | –
2 | glucose-6-gallate (GG6) [Compound 5] | effective in decreasing cholesterol level | hypocholesterolemic active compounds | –
3 | O=C(OC(C(=O)O)C1OC(=O)C(O)C1O)c1cc(O)c(O)c(O)c1 (centres unmarked) [Compound 9, mucic acid 1,4-lactone 5-gallate] | effective in decreasing cholesterol level | hypocholesterolemic active compounds | stability in aqueous solutions [3]: equilibrate
4 | O=C(O)c1cc(O)c(O)c(O)c1 [Compound 1, gallic acid] | – | hypocholesterolemic active compounds | efflux of cholesterol from cultured H-ASMC [4]: effective; efflux of cholesterol from cultured H-ASMC ([4]; listed as gallate): very effective; body weight gain versus untreated controls (F344 rats): significantly lower
5 | CC[C@H](C)C(=O)O[C@H]1C[C@@H](C)C=C2C=C[C@H](C)[C@H](CC[C@@H]3C[C@@H](O)CC(=O)O3)[C@H]21 [Lovastatin, lovastatin, reference compound] | – | – | biosynthesis of cholesterol compared to control [2, 6]: ~20%; biosynthesis of cholesteryl esters compared to control [2, 6]: ~50%; inhibition of cholesterol uptake in H-ASMC [5]: not effective; effect on cell proliferation (H-ASMC): did not appear to inhibit
6 | CCOC(=O)c1cc(O)c(O)c(O)c1 [Compound 2b, ethyl gallate] | – | hypocholesterolemic active compounds | –
7 | mucic acid-2-gallate [Compound 7] | effective in decreasing cholesterol level | hypocholesterolemic active compounds | stability in aqueous solutions [3]: equilibrate
8 | O=C(OCC(O)CO)c1cc(O)c(O)c(O)c1 (centres unmarked) [Compound 3, glycerol-1-gallate] | – | hypocholesterolemic active compounds | –
9 | O=C(OC[C@H]1OC(OC(=O)c2cc(O)c(O)c(O)c2)[C@H](O)[C@@H](O)[C@@H]1O)c1cc(O)c(O)c(O)c1 (some centres unmarked) [Compound 6, glucose-1,6-digallate (DGG16)] | effective in decreasing cholesterol level | hypocholesterolemic active compounds | –
10 | O=C(O[C@@H]1O[C@H](CO)[C@@H](O)[C@H](O)[C@H]1O)c1cc(O)c(O)c(O)c1 [Compound 4, glucose-1-gallate (GG1)] | – | hypocholesterolemic active compounds | –
11 | COC(=O)c1cc(O)c(O)c(O)c1 [Compound 2a, methyl gallate] | – | hypocholesterolemic active compounds | efflux of cholesterol from cultured H-ASMC [4]: very effective; inhibition of cholesterol uptake in H-ASMC [5]: markedly inhibit
